Laboratory results reported in US11459311B2, “Pharmaceutical composition containing indirubin derivative as active ingredient” (CK Regeon Inc., priority 2017, dated 2022).
Like-named read-outs stand apart in the source and are kept apart here.

Legend:
longitudinal bone = test: ex-vivo longitudinal bone culture, length measurement; assay type: cell-based, C57BL/6 mice; conditions: for length of the longitudinal bone increased more effectively than by comparative indirubin derivatives: versus Comparative Examples 8, 9 and 10-12; for increase of the length of the long bone relative to the control group: printed as about two times (180%)
Description: Longitudinal bones were isolated from 15.5 embryonic day C57BL/6 mice and incubated for 7 days in a 24-well tissue culture dish. Medium was used as Minimal Essential Medim (α-MEM, Gibco) including 10% fetal bovine serum (FBS), 1 mM beta polyglycerol disodium phosphate, 50 ng/ml ascorbic acid, 0.3 g/L-glutamine, 0.2% BSA, 100 U/ml penicillin, 100 μg/ml streptomycin. After the longitudinal bone was separated from the mouse, the longitudinal bone isolated from the medium was incubated for 24 hours, and the drug was treated. The medium and the drug (here are Example 1, Example 2, Comparative Examples 1, 7-9 and indirubin derivatives of 10-12) were changed every other day. The length of the longitudinal bone was measured before and after treatment with the drug. The longitudinal bone tissue after drug treatment was marched with PBS and fixed using 4% formaldehyde.
In order to more precisely determine the effect of indirubin derivatives in Example 1 or Example 2 of the present invention and other indirubin derivatives on the culture of ex-vivo longintudinal bone, various indirubin derivatives (Examples 1 and 2 and comparison Example 1, 8, 9, 10-12 indirubin derivatives) were treated as in Experimental Method 6, and the length of the longitudinal bone was measured.
FIG. 1 is a photograph of the longitudinal bone cultured at each ex-vivo when treated with indirubin induction in Example 1, Example 2, and Comparison Example 1, 8, 9, 10-12. FIG. 2 is a graph and table showing the variation in the length of the longitudinal bone measured in FIG. 1. In this case, the drooping indirubin derivatives were identical at 0.5 μM and treated in culture medium for 6 days.
We sought to determine more accurately the effect of 6-bromoindirubin-3′-oxime (Comparative Example 6) on the culture of ex-vivo longitudinal bone. FIG. 3A is a photograph (left) of a longitudinal bone culture in ex-vivo and a graph showing the numerical value when treated with 6-bromoindirubin-3′-oxime of Comparative Example 6 (right). At that time, 0.5 μM 6-bromoindirubin-3′-oxime was treated in culture medium for 6 days. The control is longitudinal bone treated with DMSO solution instead of drug.

[1] = tested on: ATDC5 cells (chondrocytes); test: MTT reduction analysis; assay type: cell-based, Murine; conditions: 24 hours treatment
Description: (§1) The ATDC5 cell (Murine constant cell line) was cultured in the DMEM (Dulbecco's modified Eagle's medium, Gibco, Grand Island, N.Y.) containing 5% Fetal Bovine Serum (FBS) and 1% penicillin/streptomycin under conditions of 37° C. and 5% CO2.
When the cells were stably attached after 5×10^3 ATDC5 cells were stuck in 96 well plate, the drug (here is 6-bromoindirubin-3′-oxime) was treated. After 24 hours, transfer to a medium containing 100 μg/ml MTT [3-(4,5-dimethylthiazol-2-yl)-2,5-diphenyletrazoliumbromide)] and incubate the cells for 2 hours before removing the growth medium. The MTT, which was reduced to purple formazan, was dissolved with DMSO and then excreted at 540 nm by ab absorbance measurement.
FIG. 3B is a graph of MTT reduction analysis of chondrocytes after treatment of different concentration of 6-bromoindirubin-3′-oxime to confirm if the reduction in the length of longitudinal bone treated with 6-bromoindirubin-3′-oxime in Comparative Example 6 is related to the effect on the survival rate of chondrocytes.
MTT reduction assay is a method to measure the viability of cells by analyzing the difference in absorbance due to the reduction of yellow MTT to purple formazan caused by mitochondrial enzyme reaction in living cells.

[2] = tested on: osteoblasts and chondrocytes; test: toxicity to osteoblasts and chondrocytes; assay type: cell-based
[3] = tested on: ALP (alkaline phosphatase); test: ALP activity assay in MC3T3-E1 cells; assay type: cell-based, Mouse; conditions: for increase of ALP activity: MC3T3-E1 cells, differentiation medium, 48 hours, versus control
Description: (§2) The MC3T3-E1 cell (Mouse osteoblastic cell line) was cultivated under conditions of 37° C. and 5% CO2 at the minimal essential media (α-MEM) (Gibco) containing 10% prenatal serum and 1% penicillin/streptomycin. For the test of differentiation induction, cells were cultivated in α-MEM mediums containing 50 μg/ml ascorbic acid and 100 mM β-glycerophosphate.
5×10^4 MC3T3-E1 cells were incubated on a 24 well plate for two days and stuck. After confirming that the cells reached 100% confluency, the medications (5,6-dichloroindirubin-3′-methoxime in Example 1) were treated in the differentiation medium for 48 hours. The cells were cleaned with a phosphoric acid buffer solution and the samples harvested were treated with a buffer solution (pH 10.3) containing 50 mM Tris-chloric acid, 100 mM glisin and p-nitro phenylpospate after cell lysis. For analysis, 3 M sodium hydroxide was treated, and absorbance was measured at 405 nm. The ALP activity was quantified by measuring the protein concentration using Bradford Analyzer.
ALP activity analysis was performed as Experimental Method 5 to determine the effect of 5,6-dichloroindirubin-3′-methoxime in Example 1 and 5-methoxylindirubin-3′-oxime in Example 2 on bone mineral density. FIG. 4 is a table showing the measured a graph showing ALP activity in cells and a table showing the degree of ALP activity in cells treated with 5,6-dichloroindirubin-3′-methoxime of Example 1 according to the present invention, 5-methoxylindirubin-3′-oxime of Example 2, indirubin derivatives of Comparative Examples 1-5 and 12. The control is the ALP activity in the cells prior to drug treatment.

β-catenin [4] = test: Immunocytochemistry of β-catenin expression and localization in ATDC5 cells; assay type: cell-based, Murine; conditions: 24 hours treatment, ICC
Description: as §1
Drugs (here are 5,6-dichloroindirubin-3′-methoxime, 5-methoxylindirubin-3′-oxime) were treated for 24 hours when the cells were securely attached to the cover glass that was placed in the 12 well plate at a density of 2.5×10^4 cells per well. Cells were cleaned with phosphoric acid buffer solution and fixed at room temperature for 20 minutes by adding 4% paraformaldehyde, and then a protein expressed in the cells was observed through the process of permeabilization, blocking and immunofluorescence.
FIG. 6 is a photograph confirming the β-catenin concentration in the ATDC5 cells treated with 5,6-dichloroindirubin-3′-methoxime of Example 1 and 5-methoxylindirubin-3′-oxime of Example 2 by immunocytochemistry. In other words, the expression and localization of β-catenin in ATDC5 cells were confirmed through ICC.

[5] = oral toxicity study in mouse; conditions: in vivo
Description: When an indirubin derivative represented by Formula 1 (5,6-dichloroindirubin-3′-methoxime) and an indirubin derivative represented by Formula 2 (5-methoxylindirubin-3′-oxime) were orally administered to a mouse for toxicity studies, they are considered to be safe substances because the 50% lethal dose (LD 50) of them are at least 1,000 mg/kg.

β-catenin [6] = test: Western blot for β-catenin stabilization in MC3T3-E1 cells; assay type: cell-based, Mouse; conditions: 24 hours treatment
Description: as §2
For Western blot analysis, drugs (here are 5,6-dichloroindirubin-3′-methoxime, 5-methoxylindirubin-3′-oxime) were treated 24 hours, and MC3T3-E1 cells were cultured and harvested in a culture dish to reach 100% confluency. Harvested samples for immunoblot was performed to quantify the protein was after cell lysis, using SDA-PAGE gel using the antibody after electrophoresis.
FIG. 5 is the result of Western blot using MC3T3-E1 cells (osteoblast cells) to confirm the effects of 5,6-dichloroindirubin-3′-methoxime of Example 1 and 5-methoxyindirubin-3′-oxime of Example 2 on the stability of β-catenin.

[7] = 0.5 μM, 6 days in culture medium

SMILES | length of the ex-vivo longitudinal bone compared to control group (longitudinal bone; 0.5 μM, 6 days in culture medium, control DMSO) | survival rate of chondrocytes ([1]; 5 μM) | concentration at which growth of chondrocytes is inhibited [1] [nM] | length of the longitudinal bone increased more effectively than by comparative indirubin derivatives (longitudinal bone; [7]) | increase of the length of the long bone relative to the control group (longitudinal bone) [%] | toxicity to osteoblasts and chondrocytes [2] | increase of ALP activity [3] [fold] | movement of stabilized β-catenin into the nucleus (β-catenin [4]) | LD50 ([5]; orally administered, read-out: 50% lethal dose (LD 50)) [mg/kg] | stabilization of β-catenin (β-catenin [6]) | effects on bone growth, bone thickness or both more significant than those of other indirubin derivatives ([3]; versus other indirubin derivatives, test not specified) | LD50 [5] [mg/kg]
O=C1Nc2cc(Br)ccc2/C1=C1/Nc2ccccc2/C1=N\O [Comparative Example 6, 6-bromoindirubin-3′-oxime] | reduced | below 50% | ≥ 1000 |  |  |  |  |  |  |  |  | 
CO/N=C1/C(=C2/C(=O)Nc3cc(Cl)c(Cl)cc32)Nc2ccccc21 [Example 1, 5,6-dichloroindirubin-3′-methoxime] |  |  |  | about 54% | ~180 | not toxic | ~2 | increase the mobility of the stabilized β-catenin into the nucleus | ≥ 1000 | significantly induced the stabilization of β-catenin |  | 
COc1ccc2c(c1)/C(=C1/Nc3ccccc3/C1=N\O)C(=O)N2 [Example 2, 5-methoxylindirubin-3′-oxime] |  |  |  | about 54% | ~180 | not toxic | ~2 | increase the mobility of the stabilized β-catenin into the nucleus |  | significantly induced the stabilization of β-catenin | more than 30% | ≥ 1000
